Consider nine compounds from PubChem BioAssay (NCI).

Each structure is given as a SMILES string.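 Values below derive from 48-hour exposures of cells grown in 96-well plates, with endpoints linearly interpolated between the two concentrations bracketing the appropriate inhibition level. TGI is the concentration that stops growth completely.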 Bounds are passed on as bounds.

Test systems include EKVX NSCLC; HCT-15 colon; UO-31 renal; ACHN renal; NCI-H226 lung; BT-549 breast; OVCAR-5 ovarian; HT29 colon; 786-0 renal; UACC-257 melanoma; CAKI-1 renal; SW-620 colon; KM12 colon; NCI-H23 lung; LOX IMVI melanoma; K-562 leukemia; A498 renal.
Common to all, as to experiment: NCI anticancer screen, dose series, 48 h

As to `Clc1ccc(Oc2ccc(N=Cc3ccc(Cl)cc3Cl)cc2Cl)cc1`, the TGI in the assay on EKVX NSCLC was above 100 µM; in the assay on HCT-15 colon, above 100 µM; in the assay on UO-31 renal it was above 100 µM; in the assay on ACHN renal, above 100 µM; in the assay on NCI-H226 lung, above 100 µM; in the assay on BT-549 breast it was 93.1 µM. Besides, the TGI in the assay on OVCAR-5 ovarian was above 100 µM; in the assay with HT29 colon, above 100 µM; in the assay with 786-0 renal, 63.5 µM; in the assay on UACC-257 melanoma, above 100 µM; with CAKI-1 renal it was above 100 µM; in the assay on SW-620 colon it was above 100 µM. Moreover, the TGI in the assay on KM12 colon, in the assay on NCI-H23 lung and in the assay on LOX IMVI melanoma was above 100 µM throughout.
Regarding `C[C@H](Nc1c(O)c2c(c(O)c1Cl)C(=O)C=CC2=O)C(=O)Nc1ccc([N+](=O)[O-])cc1`, the TGI in the assay with EKVX NSCLC was above 10 µM; with HCT-15 colon, 7.55 µM; in the assay on ACHN renal, 9.31 µM; in the assay with NCI-H226 lung it was 6.84 µM; with BT-549 breast, above 10 µM; with K-562 leukemia it was above 10 µM. Moreover, the TGI in the assay with OVCAR-5 ovarian was 3.51 µM; with HT29 colon it was 8.57 µM; in the assay with 786-0 renal, 3.23 µM; in the assay on UACC-257 melanoma, 3.41 µM; with CAKI-1 renal, above 10 µM; with SW-620 colon it was 6.49 µM. Besides, the TGI in the assay with KM12 colon was 3.66 µM; in the assay with A498 renal it was 4.8 µM; in the assay with NCI-H23 lung, 4.45 µM.
With `COc1cc(C2c3cc4c(cc3OC(Nc3ccc(C(=O)O)cc3)C2C)OCO4)cc(OC)c1OC` (stereo unspecified), the TGI in the assay with EKVX NSCLC was above 100 µM; with HCT-15 colon, above 100 µM; in the assay with UO-31 renal, 28 µM; with ACHN renal, above 68.6 µM; in the assay on BT-549 breast it was above 26.8 µM; with OVCAR-5 ovarian, above 100 µM. Further, the TGI is above 34.2 µM with HT29 colon; above 100 µM in the assay with 786-0 renal; above 94.1 µM in the assay with UACC-257 melanoma; 0.761 µM in the assay on CAKI-1 renal; above 100 µM with SW-620 colon; 1.66 µM in the assay on KM12 colon. Also, the TGI with A498 renal was above 100 µM; with NCI-H23 lung, above 68.7 µM; in the assay with LOX IMVI melanoma, above 100 µM.
Take `O=C(CC(=O)N1N=C(N2CCCCC2)CC1c1ccccc1)Nc1ccc(Cl)cc1` (stereo unspecified): the TGI in the assay on EKVX NSCLC, in the assay on HCT-15 colon, with UO-31 renal, in the assay with ACHN renal, in the assay on NCI-H226 lung and with BT-549 breast was above 100 µM throughout. Further, the TGI in the assay on OVCAR-5 ovarian, with HT29 colon, in the assay on 786-0 renal, in the assay on UACC-257 melanoma, in the assay with CAKI-1 renal and in the assay on SW-620 colon was above 100 µM in each case. The TGI in the assay with KM12 colon, in the assay on A498 renal, in the assay on NCI-H23 lung and with LOX IMVI melanoma was above 100 µM throughout.
Consider `COc1ccc2nc3ccc(OC)cc3c(S(=O)(=O)Cc3ccc([N+](=O)[O-])cc3)c2c1`, for which the TGI with EKVX NSCLC, in the assay with HCT-15 colon, with UO-31 renal, in the assay on ACHN renal, with NCI-H226 lung and in the assay on K-562 leukemia was above 100 µM throughout. In addition, the TGI in the assay on OVCAR-5 ovarian, in the assay on HT29 colon, in the assay on 786-0 renal, in the assay with UACC-257 melanoma, in the assay with CAKI-1 renal and in the assay with SW-620 colon was above 100 µM each time. Also, the TGI in the assay with KM12 colon, in the assay with A498 renal, in the assay with NCI-H23 lung and with LOX IMVI melanoma was above 100 µM each time.
Consider `CCCCCNc1nonc1N`, for which the TGI in the assay with EKVX NSCLC, in the assay on HCT-15 colon, with UO-31 renal, in the assay on ACHN renal, in the assay with NCI-H226 lung and in the assay on K-562 leukemia was above 100 µM throughout. In addition, the TGI with OVCAR-5 ovarian, in the assay on HT29 colon, with 786-0 renal, with UACC-257 melanoma, with CAKI-1 renal and with SW-620 colon was above 100 µM in each case. The TGI with KM12 colon, with A498 renal, in the assay with NCI-H23 lung and in the assay with LOX IMVI melanoma was above 100 µM in each case.
On to `Clc1ccc(SCCSCCCCCCCCCCSCCSc2ccc(Cl)cc2)cc1`, for which the TGI in the assay on EKVX NSCLC, with HCT-15 colon, in the assay with UO-31 renal, with ACHN renal, with NCI-H226 lung and in the assay on K-562 leukemia was above 100 µM each time. Besides, the TGI in the assay on OVCAR-5 ovarian, with HT29 colon, with 786-0 renal, in the assay on UACC-257 melanoma, in the assay with CAKI-1 renal and in the assay with SW-620 colon was above 100 µM each time. In addition, the TGI with KM12 colon, in the assay on A498 renal, in the assay on NCI-H23 lung and in the assay on LOX IMVI melanoma was above 100 µM in each case.
As for `CSC(C1c2ccccc2N(C)C2=NC(=O)N(C)C(=O)C21Cl)S(=O)(=O)c1ccc(C)cc1` (stereo unspecified), the TGI was above 100 µM in the assay on EKVX NSCLC; above 100 µM in the assay on HCT-15 colon; above 100 µM with UO-31 renal; above 100 µM in the assay on ACHN renal; above 100 µM with NCI-H226 lung; 43.5 µM in the assay on K-562 leukemia. Besides, the TGI with OVCAR-5 ovarian is above 100 µM; in the assay with HT29 colon, above 100 µM; in the assay with 786-0 renal it was 33.2 µM; with UACC-257 melanoma, above 100 µM; in the assay on CAKI-1 renal, 48 µM; in the assay with SW-620 colon, 71.1 µM. In addition, the TGI in the assay on KM12 colon was above 100 µM; in the assay with A498 renal, above 100 µM; in the assay with NCI-H23 lung, 83.5 µM; in the assay with LOX IMVI melanoma, above 100 µM.
Take `COc1cc(-c2oc3c(OC)c(O)c(OC)c(O)c3c(=O)c2OC)cc(O)c1OC`: the TGI in the assay on EKVX NSCLC, in the assay with HCT-15 colon, with UO-31 renal, in the assay on ACHN renal, with NCI-H226 lung and in the assay with K-562 leukemia was above 100 µM each time. Also, the TGI in the assay on OVCAR-5 ovarian, in the assay with HT29 colon, in the assay on 786-0 renal, in the assay with UACC-257 melanoma, with CAKI-1 renal and in the assay with SW-620 colon was above 100 µM throughout. Moreover, the TGI in the assay with KM12 colon is above 100 µM; in the assay on A498 renal, 75.4 µM; in the assay with NCI-H23 lung, 76.8 µM; in the assay on LOX IMVI melanoma it was above 100 µM.
